“Also recorded” adds a separate entry of the source.
Experiments:
HER-2 dependent models = conditions: cited from earlier work
[1] = test system: PC9 cells (EGFR-dependent NSCLC); assay: Colony formation assay in PC9 cells; assay type: cell-based; conditions: 4 weeks, compared to THZ1 (FIG. 55B)
[2] = test system: RT112 bladder carcinoma cells (FGFR3-dependent); assay: Colony formation assay in RT112 cells; assay type: cell-based, human
Excerpt: Media (and drug) were replaced weekly.

PC9 cells = assay: Apoptosis/cell death analysis (Annexin V/PI flow cytometry) in PC9 cells; assay type: cell-based; conditions: 48 hours; erlotinib 1 μM; compared to PC9 cells with control RNA guide
Experimental: 100,000 cells were seeded in 6-well plates, allowed to adhere overnight, and then incubated with media containing vehicle or drug as indicated for 24 or 48 hours. Cell death was quantified using the Alexa Fluor 488 Annexin V/Dead Cell Apoptosis kit for flow cytometry (Invitrogen), according to the manufacturer's protocol. All conditions were assayed in triplicate. Data were acquired using a BD LSRFortessa X-20 (BD Biosciences), and analyzed in FlowJo.

[3] = test system: signaling pathways in PC9 cells; assay: Western blot / immunoblot of signaling pathways in PC9 cells; assay type: cell-based; conditions: 24 hours, erlotinib 1 μM, THZ1 100 nM, alone or combined
Experimental: Cells were lysed in RIPA buffer (Roche) containing protease inhibitors (Roche) and Phosphatase Inhibitor Cocktails I and II (CalBioChem). Protein concentrations were determined using a Bradford assay (Bio-Rad). Proteins were separated by SDS gel electrophoresis using NuPAGE 4-12% Bis-Tris gels (Life Technologies) in MOPS buffer. Resolved protein was transferred to nitrocellulose membranes, blocked in 10% milk and probed with primary antibodies recognizing EGFR (2232S), p-EGFR (2234S), FGFR3 (4574S), p-FGFR (3471S), HER2/ERBB2 (2165), p-ERBB2 (2243S), STAT1 (9172), p-STAT1 (9167), STAT3 (4904S), p-STAT3 (9145S), AKT (9272S), p-AKT (4060P), ERK (4695S), p-ERK (4370S), FRA1 (5281S), CDK12 (11973) (all from Cell Signaling Technology), CDK7 (sc-723, Santa Cruz), actin (A5441, Sigma-Aldrich) and vinculin (V9131, Sigma-Aldrich) in 5% milk or 3% bovine serum albumin as recommended by the manufacturer. After incubation with the appropriate secondary antibody (Pierce anti-mouse IgG/IgM (31444, Thermo Scientific) and anti-rabbit IgG (31460, Thermo Scientific)), blots were imaged on film.
Western blots were used to characterize the signaling pathways in selected cell lines. The assays were performed at 24 hours under the following conditions: untreated, treated with 1 μM erlotinib, treated with 100 nM THZ1, or treated with a combination of erlotinib and THZ1, in PC9 and RT112 cells. These doses were also used in the colony formation assays and the RNAseq and ChIPseq experiments. […] However, it could be blocking the activation of downstream STAT3 targets. […] FGFR is known to be a bypass mechanism in PC9, but this was not seen with THZ1 treatment or with the combination treatment. […] This is unexpected, given that THZ1 should block CDK7-mediated RNAPII phosphorylation. This may be due to the dose or the time point assayed.

[4] = test system: gene expression in PC9 cells; assay: RNA-Seq gene expression in PC9 cells
Experimental: RNA was isolated from untreated RT112 cells and RT112 cells treated with 1 μM BGJ398, 100 nM THZ1, or combination treatment with THZ1 plus BGJ398, and similarly, untreated PC9 cells and PC9 cells treated with 1 μM erlotinib, 100 nM THZ1, or THZ1 plus erlotinib. Both cell lines were harvested at two time-points: following one day or seven days of treatment. Cell number was determined and total RNA was isolated using the RNeasy micro kit (Qiagen). Ambion® ERCC RNA Spike-In Mix (Life technology) was added to total RNA. cDNA libraries were prepared using the NEBNext® Ultra™ RNA Library Prep Kit for Illumina (New England Biolabs) according to the manufacturer's instructions. Library integrity was assessed on an Agilent 2100 Bioanalyzer (Agilent). Sequencing was performed on the Hiseq 2000 platform (Illumina) to a minimum depth of 30 million reads per sample.
QC-passed reads were aligned to the human reference genome (hg19) using PRADA.^46 Transcript per million (TPM) values were determined using RSEM.^47 TPM values were normalized with the voom transformation.^48 Expression changes for each gene in treated cells compared to untreated controls was determined using the limma package^49 as log 2-transformed fold change and a multiple-testing adjusted p-value. Heatmap visualization was performed using R. Log 2-transformed fold changes were not scaled and were colored on a blue-red scale.
Differentially expressed genes (defined as log 2-fold change value greater than 1.5 or less than −1.5, and p-value less than 0.01) were input into Ingenuity Pathway Analysis (www.ingenuity.com), to identify a) enriched pathways, 2) upstream regulators, andd 3) downstream effectors. […] We considered an activation z-score of greater than [2] to be activated, and less than [−2] to be inhibited. Gene ontology term (GO-term) enrichment analysis was performed using the Database for Annotation, Visualization and Integrated Discovery (DAVID) v6.7 (david.abcc.ncifcrf.gov/).

[5] = test system: H3K27Ac enhancer signal in PC9 cells; assay: H3K27Ac ChIP-Seq in PC9 cells; assay type: cell-based, human; conditions: seven days of treatment, vs DMSO
Experimental: RT112 and PC9 cells treated for seven days with vehicle, 1 μM BGJ398 and erlotinib (respectively), 100 nM THZ1, or BGJ398/erlotinib in combination with THZ1. H3K27Ac ChIP-Seq was performed using Abcam antibody (cat # AB4729, lot # GR183922-1) as previously described,^8 with minor modifications (cells were crosslinked for 20 min, Dynal magnetic beads (Sigma) were bound with 10 μg of the indicated antibody).
All ChIP-Seq data sets were aligned using bowtie 1.0.1 to build NCBI36/hg19 of the human genome with -p 4—best -k 2 -m 2—sam -1 40. Wiggle files for gene tracks were created using Macs 1.4.2 with options -w -S -space=50 to count reads in 50 bp bins.
Regions enriched in H3K27Ac were identified using SICER^51 with corresponding input DNA control, and parameters -t 1 (max 1 read per position), -w 200 (window size 200), -i 150 (fragment size), -g 200 (gap size 200; 1 window), -t 0.74 (interrogable genome fraction), -e 200 (e-value), -p 1e-9 (significance p value cutoff). […]
Density of H3K27Ac ChIP-Seq signal (FIG. 51F) was calculated using bamToGFF (github.com/BradnerLab/pipeline). Islands of H3K27Ac identified in RT112 BGJ398-treated cells or PC9 erlotinib-treated cells were treated as one bin (-m 1), reads were extended to be 200 bp (default) and the reads-per-million (-r) normalized density (-d) of reads was calculated therein.

IL-6 = IL-6 in PC9 cell culture supernatants (Luminex cytokine assay, ELISA); assay type: cell-based; conditions: PC9 cells; erlotinib 1 μM, THZ1 100 nM; 24 and 72 hours
Experimental: A Luminex Multiplex Custom Cytokine assay was used to assay cytokines in RT112 and PC9 cell culture supernatants treated with vehicle, 1 μM BGJ398 or erlotinib respectively, 100 nM THZ1, or THZ1 in combination with BGJ398 or erlotinib, at 24 and 72 hours. Cytokines assayed for were: CCL2/MCP-1, CCL5/RANTES, CXLC5, IL-1 alpha and beta, IL-2, IL-4, IL-5, IL-6, IL-8, IL-10, IL-17a, GM-CSF, TNF-alpha, VEGF, INF-gamma. IL-6 was also assayed in cell culture supernatants using the Quantikine IL-6 ELISA kit (D6050, R&D Systems) as per the manufacturer's protocol.

SMILES	sensitivity to lapatinib (HER-2 dependent models)	enhancement of sensitivity to erlotinib (colony formation) [1]	enhancement of sensitivity to BGJ398 (colony formation) ([2]; 4 weeks, compared to THZ1 (FIG. 55D))	colony formation, transcription inhibitor alone or in combination with BGJ398 ([2]; one week, 24-well plate (FIG. 35))	sensitivity to erlotinib (cell death) of CDK7 and CDK12-deficient PC9 cells (PC9 cells)	FGFR activation [3]	p-STAT3 (STAT3 phosphorylation/activation) [3]	gene expression (transcriptional programs) by RNAseq ([4]; erlotinib 1 μM, THZ1 100 nM, one or seven days)	gene expression of the top 200 up-regulated genes with erlotinib treatment ([4]; log2-normalized FPKM, two-tailed t-test)	H3K27Ac ChIP-Seq signal at enhancers [5]	IL-6 levels in cell culture supernatants (IL-6)
Cc1sc2c(c1C)C(c1ccc(Cl)cc1)=N[C@@H](CC(=O)OC(C)(C)C)c1nnc(C)n1-2 [JQ1]	enhance sensitivity to lapatinib	did not enhance sensitivity to erlotinib	did enhance sensitivity to BGJ398 in RT112, although less so than THZ1	modest results, even in combination							
C#Cc1cccc(Nc2ncnc3cc(OCCOC)c(OCCOC)cc23)c1 [erlotinib]					enhanced sensitivity to erlotinib	is activated; also recorded: activation of FGFR was also observed	increases	transcriptionally distinct form the parental population; also recorded: up-regulated the expression of genes involved in pro-survival programs	significant increase in gene expression	significant increase in H3K27Ac signal	significantly increased
